For 18 compounds, DC50 results are on record in US20260028354A1, “TETRAHYDRONAPHTHALENE DERIVATIVES AS ESTROGEN RECEPTOR DEGRADERS” (REGENT OF THE UNIVERSITY OF MICHIGAN, priority 2022, published 2026).

For orientation: DC50 means the concentration giving 50% degradation.

Where only a bound is given, the exact number is not on record here.

The nature of the experiment: Western blot analysis for "B" compounds. The experiment is classed as cell-based. Conditions: read-out: Traditional Western Degradation Potency (DC50). A digest of the protocol: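 Target protein levels given as relative mean band intensity over GAPDH from scanned immunoblots. Lysates of treated cells in RIPA buffer, equalized by BCA, separated on 10% gels and transferred to PVDF.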
(In western blotting, separated proteins are transferred to a membrane and probed.)
Regarding `O=C1CCC(N2C(=O)c3cc4c(cc3C2=O)CC2(C4)CN(CC(=O)N3CC(Oc4ccc([C@@H]5c6ccc(O)cc6CC[C@@H]5c5ccccc5)cc4)C3)C2)C(=O)N1` (stereo partly drawn) [Compound B300, 2′-(2,6-dioxopiperidin-3-yl)-1-(2-(3-(4-((1R,2S)-6-hydroxy-2-phenyl-1,2,3,4-tetrahydronaphthalen-1-yl)phenoxy)azetidin-1-yl)-2-oxoethyl)-5′,7′-dihydro-1'H-spiro[azetidine-3,6′-cyclopenta[f]isoindole]-1′,3′(2′H)-dione], the DC50 is over 100 nM. Regarding `O=C1CCC(N2C(=O)c3cc4c(cc3C2=O)CN([C@H]2CC[C@@H](NC3CN(c5ccc([C@@H]6c7ccc(O)cc7CC[C@@H]6c6ccccc6)cc5)C3)CC2)C4)C(=O)N1` (stereo partly drawn) [Compound B102, 2-(2,6-dioxopiperidin-3-yl)-6-((1S,4s)-4-((1-(4-((1R,2S)-6-hydroxy-2-phenyl-1,2,3,4-tetrahydronaphthalen-1-yl)phenyl)azetidin-3-yl)amino)cyclohexyl)-6,7-dihydropyrrolo[3,4-f]isoindole-1,3(2H,5H)-dione], the DC50 was over 100 nM. Consider `O=C1CCC(N2C(=O)c3cc4c(cc3C2=O)CN(C(=O)CN2CCC[C@H](Oc3ccc([C@@H]5c6ccc(O)cc6CC[C@@H]5c5ccc(F)cc5)cc3)C2)C4)C(=O)N1` (stereo partly drawn) [Compound B38, 2-(2,6-dioxopiperidin-3-yl)-6-(2-((S)-3-(4-((1R,2S)-2-(4-fluorophenyl)-6-hydroxy-1,2,3,4-tetrahydronaphthalen-1-yl)phenoxy)piperidin-1-yl)acetyl)-6,7-dihydropyrrolo[3,4-f]isoindole-1,3(2H,5H)-dione], for which the DC50 is over 100 nM. With `O=C1CCC(N2C(=O)c3cc4c(cc3C2=O)CN(CC2(F)CCN(C(=O)C3(F)CN(c5ccc([C@@H]6c7ccc(O)cc7CC[C@@H]6c6ccccc6)cc5)C3)CC2)C4)C(=O)N1` (stereo partly drawn) [Compound B265, 2-(2,6-dioxopiperidin-3-yl)-6-((4-fluoro-1-(3-fluoro-1-(4-((1R,2S)-6-hydroxy-2-phenyl-1,2,3,4-tetrahydronaphthalen-1-yl)phenyl)azetidine-3-carbonyl)piperidin-4-yl)methyl)-6,7-dihydropyrrolo[3,4-f]isoindole-1,3(2H,5H)-dione] the figure was over 100 nM; with `O=C1CCC(N2C(=O)c3cc4c(cc3C2=O)CN(CC2CC3(CCN(C(=O)c5ccc([C@@H]6c7ccc(O)cc7CC[C@@H]6c6ccccc6)cc5)CC3)C2)C4)C(=O)N1` (stereo partly drawn) [Compound B289, 2-(2,6-dioxopiperidin-3-yl)-6-((7-(4-((1R,2S)-6-hydroxy-2-phenyl-1,2,3,4-tetrahydronaphthalen-1-yl)benzoyl)-7-azaspiro[3.5]nonan-2-yl)methyl)-6,7-dihydropyrrolo[3,4-f]isoindole-1,3(2H,5H)-dione], over 100 nM; with `O=C1CCC(N2Cc3cc4c(cc3C2=O)CN(CC(=O)N2CCC3(C2)CN(c2ccc([C@@H]5c6ccc(O)cc6CC[C@@H]5c5ccccc5)cc2)C3)C4)C(=O)N1` (mixture of isomers) [Compound B184, 3-(6-(2-(2-(4-((1R,2S)-6-hydroxy-2-phenyl-1,2,3,4-tetrahydronaphthalen-1-yl)phenyl)-2,6-diazaspiro[3.4]octan-6-yl)-2-oxoethyl)-1-oxo-3,5,6,7-tetrahydropyrrolo[3,4-f]isoindol-2(1H)-yl)piperidine-2,6-dione], under 10 nM.

For `O=C1CCC(N2C(=O)c3cc4c(cc3C2=O)CN(C[C@H]2CC[C@H](N3CC(Nc5ccc([C@@H]6c7ccc(O)cc7CC[C@@H]6c6ccccc6)cc5)C3)CC2)C4)C(=O)N1` (stereo partly drawn) [Compound B118, 2-(2,6-dioxopiperidin-3-yl)-6-(((1R,4r)-4-(3-((4-((1R,2S)-6-hydroxy-2-phenyl-1,2,3,4-tetrahydronaphthalen-1-yl)phenyl)amino)azetidin-1-yl)cyclohexyl)methyl)-6,7-dihydropyrrolo[3,4-f]isoindole-1,3(2H,5H)-dione], the DC50 was over 100 nM. For `O=C1CCC(N2C(=O)c3cc4c(cc3C2=O)CN(CC2CCN(CC3(F)CN(c5ccc([C@@H]6c7ccc(O)cc7CC[C@@H]6c6ccccc6)cc5)C3)CC2)C4)C(=O)N1` (stereo partly drawn) [Compound B74, 2-(2,6-dioxopiperidin-3-yl)-6-((1-((3-fluoro-1-(4-((1R,2S)-6-hydroxy-2-phenyl-1,2,3,4-tetrahydronaphthalen-1-yl)phenyl)azetidin-3-yl)methyl)piperidin-4-yl)methyl)-6,7-dihydropyrrolo[3,4-f]isoindole-1,3(2H,5H)-dione], the DC50 was over 100 nM. With `O=C1CCC(N2C(=O)c3cc4c(cc3C2=O)CN(C(=O)CN2CCC3(CC2)CCN(c2ccc([C@@H]5c6ccc(O)cc6CC[C@@H]5c5ccccc5)cc2)C3)C4)C(=O)N1` (mixture of isomers) [Compound B22, 2-(2,6-dioxopiperidin-3-yl)-6-(2-(2-(4-((1R,2S)-6-hydroxy-2-phenyl-1,2,3,4-tetrahydronaphthalen-1-yl)phenyl)-2,8-diazaspiro[4.5]decan-8-yl)acetyl)-6,7-dihydropyrrolo[3,4-f]isoindole-1,3(2H,5H)-dione] the figure was over 100 nM; with `O=C1CCC(N2C(=O)c3cc4c(cc3C2=O)CC2(C4)CN(C(=O)CN3CC(Oc4ccc([C@@H]5c6ccc(O)cc6CC[C@@H]5c5ccccc5)cc4)C3)C2)C(=O)N1` (stereo partly drawn) [Compound B299, 2′-(2,6-dioxopiperidin-3-yl)-1-(2-(3-(4-((1R,2S)-6-hydroxy-2-phenyl-1,2,3,4-tetrahydronaphthalen-1-yl)phenoxy)azetidin-1-yl)acetyl)-5′,7′-dihydro-1'H-spiro[azetidine-3,6′-cyclopenta[f]isoindole]-1′,3′(2'H)-dione], over 100 nM. With `O=C1CCC(N2C(=O)c3cc4c(cc3C2=O)CN(CC(=O)N2CCC3(CC2)CN(C(=O)c2ccc([C@@H]5c6ccc(O)cc6CC[C@@H]5c5ccccc5)cc2)C3)C4)C(=O)N1` (stereo partly drawn) [Compound B291, 2-(2,6-dioxopiperidin-3-yl)-6-(2-(2-(4-((1R,2S)-6-hydroxy-2-phenyl-1,2,3,4-tetrahydronaphthalen-1-yl)benzoyl)-2,7-diazaspiro[3.5]nonan-7-yl)-2-oxoethyl)-6,7-dihydropyrrolo[3,4-f]isoindole-1,3(2H,5H)-dione] the figure was over 100 nM; with `O=C1CCC(N2C(=O)c3cc4c(cc3C2=O)CN(C2CCC(C(=O)N3CCCC(Oc5ccc([C@@H]6c7ccc(O)cc7CC[C@@H]6c6ccccc6)cc5)C3)CC2)C4)C(=O)N1` (mixture of isomers) [Compound B15, 2-(2,6-dioxopiperidin-3-yl)-6-(4-(3-(4-((1R,2S)-6-hydroxy-2-phenyl-1,2,3,4-tetrahydronaphthalen-1-yl)phenoxy)piperidine-1-carbonyl)cyclohexyl)-6,7-dihydropyrrolo[3,4-f]isoindole-1,3(2H,5H)-dione], 10 to 100 nM; with `O=C1CCC(N2C(=O)c3cc4c(cc3C2=O)CN(CC(=O)NC2CCN(c3ccc([C@@H]5c6ccc(O)cc6CC[C@@H]5c5ccccc5)cc3)CC2)C4)C(=O)N1` (stereo partly drawn) [Compound B93, 2-(6-(2,6-dioxopiperidin-3-yl)-5,7-dioxo-3,5,6,7-tetrahydropyrrolo[3,4-f]isoindol-2(1H)-yl)-N-(1-(4-((1R,2S)-6-hydroxy-2-phenyl-1,2,3,4-tetrahydronaphthalen-1-yl)phenyl)piperidin-4-yl)acetamide], over 100 nM. Next, `O=C1CCC(N2Cc3cc4c(cc3C2=O)CN(C2CCN(CC3CCN(c5ccc([C@@H]6c7ccc(O)cc7CC[C@@H]6c6ccccc6)cc5)CC3)CC2)C4=O)C(=O)N1` (stereo partly drawn) [Compound B303, 2-(2,6-dioxopiperidin-3-yl)-6-(1-((1-(4-((1R,2S)-6-hydroxy-2-phenyl-1,2,3,4-tetrahydronaphthalen-1-yl)phenyl)piperidin-4-yl)methyl)piperidin-4-yl)-2,3,6,7-tetrahydropyrrolo[3,4-f]isoindole-1,5-dione]: over 100 nM; `C[C@@H]1CC2(CCN(c3ccc([C@@H]4c5ccc(O)cc5CC[C@@H]4c4ccc(F)cc4)cc3)CC2)CN1CC(=O)N1Cc2cc3c(cc2C1)C(=O)N(C1CCC(=O)NC1=O)C3=O` (stereo partly drawn) [Compound B27, 2-(2,6-dioxopiperidin-3-yl)-6-(2-((R)-8-(4-((1R,2S)-2-(4-fluorophenyl)-6-hydroxy-1,2,3,4-tetrahydronaphthalen-1-yl)phenyl)-3-methyl-2,8-diazaspiro[4.5]decan-2-yl)acetyl)-6,7-dihydropyrrolo[3,4-f]isoindole-1,3(2H,5H)-dione]: over 100 nM. In the case of `CC1(C(=O)N2CCC(N3Cc4cc5c(cc4C3)C(=O)N(C3CCC(=O)NC3=O)C5=O)CC2)CCN(c2ccc([C@@H]3c4ccc(O)cc4CC[C@@H]3c3ccccc3)cc2)CC1` (stereo partly drawn) [Compound B283, 2-(2,6-dioxopiperidin-3-yl)-6-(1-(1-(4-((1R,2S)-6-hydroxy-2-phenyl-1,2,3,4-tetrahydronaphthalen-1-yl)phenyl)-4-methylpiperidine-4-carbonyl)piperidin-4-yl)-6,7-dihydropyrrolo[3,4-f]isoindole-1,3(2H,5H)-dione], the DC50 is over 100 nM. With `O=C1CCC(N2C(=O)c3cc4c(cc3C2=O)CN(CC(=O)N2CCC(n3cc(-c5ccc([C@@H]6c7ccc(O)cc7CC[C@@H]6c6ccccc6)cc5)cn3)CC2)C4)C(=O)N1` (stereo partly drawn) [Compound B58, 2-(2,6-dioxopiperidin-3-yl)-6-(2-(4-(4-(4-((1R,2S)-6-hydroxy-2-phenyl-1,2,3,4-tetrahydronaphthalen-1-yl)phenyl)-1H-pyrazol-1-yl)piperidin-1-yl)-2-oxoethyl)-6,7-dihydropyrrolo[3,4-f]isoindole-1,3(2H,5H)-dione] the figure was over 100 nM; with `O=C1CCC(N2C(=O)c3cc4c(cc3C2=O)CCN(CC(=O)N2CC3(CCN(c5ccc([C@@H]6c7ccc(O)cc7CC[C@@H]6c6ccc(F)cc6)cc5)CC3)C2)CC4)C(=O)N1` (stereo partly drawn) [Compound B53, 2-(2,6-dioxopiperidin-3-yl)-7-(2-(7-(4-((1R,2S)-2-(4-fluorophenyl)-6-hydroxy-1,2,3,4-tetrahydronaphthalen-1-yl)phenyl)-2,7-diazaspiro[3.5]nonan-2-yl)-2-oxoethyl)-6,7,8,9-tetrahydroazepino[4,5-f]isoindole-1,3(2H,5H)-dione], over 100 nM.
